Results published in PMC12073402, “A Selective MAP3K1 Inhibitor Facilitates Discovery of NPM1 as a Member of the Network” (Molecules, 2025).

Key:
Experiment in all cases: KiNativ kinome profiling in PANC-1 lysate
Type in all cases: binding
PKCi = biological target: T1, PKCi (Homo sapiens, UniProt P41743)
T1 construct: endogenous in cells; host or cells: PANC-1 cell lysate
Outline: (§1)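 PANC-1 lysates were incubated with 5 μM inhibitor or DMSO, then labeled with a desthiobiotin-ATP acyl-phosphate probe that biotinylates conserved kinase lysines. Tryptic peptides were streptavidin-enriched and quantified by LC-MS/MS, reported as % change in MS signal from duplicate treated and duplicate control samples.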

TYK2 domain2 = biological target: T2, TYK2 domain2 (Homo sapiens, UniProt P29597); conditions: ATP Loop
T2 construct: endogenous in cells; host or cells: PANC-1 cell lysate
Outline: as §1

JNK1, JNK2, JNK3 = conditions: 5 µM; Lys2; DLKPSNIVVK
Outline: as §1

MST1 = biological target: T3, MST1 (Homo sapiens, UniProt Q13043); conditions: Lys1
T3 construct: endogenous in cells; host or cells: PANC-1
Outline: as §1

AurB = biological target: T4, AurB (Homo sapiens, UniProt Q96GD4); conditions: Lys1
T4 construct: endogenous in cells; host or cells: PANC-1 cell lysate
Outline: as §1

[1] = tested on: CaMK2a, CaMK2b, CaMK2d, CaMK2g; conditions: 5 µM; Lys2; DLKPENLLLASK
Outline: as §1

PDK1 = biological target: T5, PDK1 (Homo sapiens, UniProt O15530); conditions: Lys1
T5 construct: endogenous in cells; host or cells: PANC-1 cell lysate
Outline: as §1

DRAK1 = biological target: T6, DRAK1 (Homo sapiens, UniProt Q9UEE5); conditions: Lys2
T6 construct: endogenous in cells; host or cells: PANC-1 lysate
Outline: as §1

PKCa, PKCg = conditions: 5 µM; Other; NLIPMDPNGLSDPYVKLK
Outline: as §1

MAP3K15, MAP3K5, MAP3K6 = conditions: 5 µM; Lys1; IAIKEIPER
Outline: as §1

HRI = biological target: T7, HRI (Homo sapiens, UniProt Q9BQI3); conditions: ATP Loop
T7 construct: we opted to conduct a kinome screen (KiNativ) in PANC-1 cell lysates; endogenous in cells; host or cells: PANC-1 cell lysate
Outline: as §1

SRPK2 = biological target: T8, SRPK2 (Homo sapiens, UniProt P78362); conditions: Lys2
T8 construct: endogenous in cells; host or cells: PANC-1 cell lysate
Outline: as §1

NEK4 = biological target: T9, NEK4 (Homo sapiens, UniProt P51957); conditions: Lys2
T9 construct: endogenous in cells; host or cells: PANC-1 cell lysate
Outline: as §1

GCK = biological target: T10, GCK (Homo sapiens, UniProt Q12851)
T10 construct: we opted to conduct a kinome screen (KiNativ) in PANC-1 cell lysates; endogenous in cells; host or cells: PANC-1 cell lysate
Outline: as §1

MST3 = biological target: T11, MST3 (Homo sapiens, UniProt Q9Y6E0); conditions: Lys2
T11 construct: endogenous in cells; host or cells: PANC-1
Outline: as §1

Wnk1, Wnk2, Wnk3 = conditions: 5 µM; Lys2; DLKCDNIFITGPTGSVK
Outline: as §1

MAP3K5 = biological target: T12, MAP3K5 (Homo sapiens, UniProt Q99683); conditions: Lys2
T12 construct: endogenous in cells; host or cells: PANC-1 cell lysate
Outline: as §1

PCTAIRE2 = biological target: T13, PCTAIRE2 (Homo sapiens, UniProt Q00537); conditions: Lys2
T13 construct: endogenous in cells; host or cells: PANC-1 cell lysate
Outline: as §1

RSK2 domain2 = biological target: T14, RSK2 domain2 (Homo sapiens, UniProt P51812); conditions: Lys2
T14 construct: endogenous in cells; host or cells: PANC-1 cell lysate
Outline: as §1

KSR1, KSR2 = conditions: 5 µM; ATP Loop; SKNVFYDNGK
Outline: as §1

PCTAIRE2, PCTAIRE3 = conditions: 5 µM; Lys1; SKLTENLVALKEIR
Outline: as §1

PIK3C2B = biological target: T15, PIK3C2B (Homo sapiens, UniProt O00750); conditions: ATP
T15 construct: endogenous in cells; host or cells: PANC-1 cell lysate
Outline: as §1

Wnk1, Wnk2, Wnk4 = conditions: 5 µM; ATP Loop; IGDLGLATLKR
Outline: as §1

RAF1 = biological target: T16, RAF1 (Homo sapiens, UniProt P04049); conditions: Lys2
T16 construct: endogenous in cells; host or cells: PANC-1 cell lysate
Outline: as §1

MAPKAPK3 = biological target: T17, MAPKAPK3 (Homo sapiens, UniProt Q16644)
T17 construct: endogenous in cells; host or cells: PANC-1 cell lysate
Outline: as §1

PKN2 = biological target: T18, PKN2 (Homo sapiens, UniProt Q16513); conditions: Lys2
T18 construct: endogenous in cells; host or cells: PANC-1 cell lysate
Outline: as §1

T1 sequence (P41743 whole entry): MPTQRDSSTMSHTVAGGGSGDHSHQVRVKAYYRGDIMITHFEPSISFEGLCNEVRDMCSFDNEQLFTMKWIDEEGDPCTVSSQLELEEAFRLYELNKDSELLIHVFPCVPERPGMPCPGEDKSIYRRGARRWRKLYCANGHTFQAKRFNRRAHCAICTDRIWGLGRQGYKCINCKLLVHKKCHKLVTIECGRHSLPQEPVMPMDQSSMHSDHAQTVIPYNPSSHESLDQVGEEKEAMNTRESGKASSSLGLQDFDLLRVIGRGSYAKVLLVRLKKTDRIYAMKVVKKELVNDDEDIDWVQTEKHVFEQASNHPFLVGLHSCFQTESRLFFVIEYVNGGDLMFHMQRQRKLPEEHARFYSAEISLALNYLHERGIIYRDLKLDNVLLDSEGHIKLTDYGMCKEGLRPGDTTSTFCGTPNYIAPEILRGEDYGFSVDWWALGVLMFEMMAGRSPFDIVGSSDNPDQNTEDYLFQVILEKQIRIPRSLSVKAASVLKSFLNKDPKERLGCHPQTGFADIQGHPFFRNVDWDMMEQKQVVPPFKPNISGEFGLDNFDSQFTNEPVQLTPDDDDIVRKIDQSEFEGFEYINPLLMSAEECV
T10 sequence (Q12851 whole entry): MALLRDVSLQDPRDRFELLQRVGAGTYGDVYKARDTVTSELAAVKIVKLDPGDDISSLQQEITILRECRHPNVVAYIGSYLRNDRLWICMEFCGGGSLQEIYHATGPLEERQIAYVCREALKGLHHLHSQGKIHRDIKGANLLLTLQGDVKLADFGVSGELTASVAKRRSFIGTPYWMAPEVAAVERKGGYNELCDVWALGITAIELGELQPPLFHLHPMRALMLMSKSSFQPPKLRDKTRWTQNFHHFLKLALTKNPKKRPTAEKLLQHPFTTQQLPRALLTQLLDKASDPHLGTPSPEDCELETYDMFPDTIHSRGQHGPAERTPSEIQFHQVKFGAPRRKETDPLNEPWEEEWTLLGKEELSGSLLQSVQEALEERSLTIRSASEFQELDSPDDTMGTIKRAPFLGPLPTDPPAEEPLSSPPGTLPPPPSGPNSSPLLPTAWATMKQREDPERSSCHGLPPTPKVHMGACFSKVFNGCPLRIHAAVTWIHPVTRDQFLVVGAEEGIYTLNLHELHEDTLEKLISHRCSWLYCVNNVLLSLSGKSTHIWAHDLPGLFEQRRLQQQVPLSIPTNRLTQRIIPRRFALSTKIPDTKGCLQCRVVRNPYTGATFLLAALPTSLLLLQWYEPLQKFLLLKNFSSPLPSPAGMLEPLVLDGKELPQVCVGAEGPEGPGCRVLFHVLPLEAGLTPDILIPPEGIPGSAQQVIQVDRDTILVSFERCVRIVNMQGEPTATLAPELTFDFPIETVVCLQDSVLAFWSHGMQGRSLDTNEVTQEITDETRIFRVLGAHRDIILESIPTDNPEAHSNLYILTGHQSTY
T17 sequence (Q16644 whole entry): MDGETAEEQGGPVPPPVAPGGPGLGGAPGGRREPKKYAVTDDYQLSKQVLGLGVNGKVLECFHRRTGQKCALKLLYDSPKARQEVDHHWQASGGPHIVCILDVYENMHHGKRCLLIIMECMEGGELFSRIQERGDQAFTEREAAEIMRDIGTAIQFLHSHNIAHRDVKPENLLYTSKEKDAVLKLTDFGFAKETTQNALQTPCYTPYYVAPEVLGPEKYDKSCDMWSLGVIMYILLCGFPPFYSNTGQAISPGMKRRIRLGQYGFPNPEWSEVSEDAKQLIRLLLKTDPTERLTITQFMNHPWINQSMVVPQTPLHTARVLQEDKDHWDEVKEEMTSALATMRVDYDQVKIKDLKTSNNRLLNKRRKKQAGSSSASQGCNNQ
T2 sequence (P29597 whole entry, the tested form may be a part): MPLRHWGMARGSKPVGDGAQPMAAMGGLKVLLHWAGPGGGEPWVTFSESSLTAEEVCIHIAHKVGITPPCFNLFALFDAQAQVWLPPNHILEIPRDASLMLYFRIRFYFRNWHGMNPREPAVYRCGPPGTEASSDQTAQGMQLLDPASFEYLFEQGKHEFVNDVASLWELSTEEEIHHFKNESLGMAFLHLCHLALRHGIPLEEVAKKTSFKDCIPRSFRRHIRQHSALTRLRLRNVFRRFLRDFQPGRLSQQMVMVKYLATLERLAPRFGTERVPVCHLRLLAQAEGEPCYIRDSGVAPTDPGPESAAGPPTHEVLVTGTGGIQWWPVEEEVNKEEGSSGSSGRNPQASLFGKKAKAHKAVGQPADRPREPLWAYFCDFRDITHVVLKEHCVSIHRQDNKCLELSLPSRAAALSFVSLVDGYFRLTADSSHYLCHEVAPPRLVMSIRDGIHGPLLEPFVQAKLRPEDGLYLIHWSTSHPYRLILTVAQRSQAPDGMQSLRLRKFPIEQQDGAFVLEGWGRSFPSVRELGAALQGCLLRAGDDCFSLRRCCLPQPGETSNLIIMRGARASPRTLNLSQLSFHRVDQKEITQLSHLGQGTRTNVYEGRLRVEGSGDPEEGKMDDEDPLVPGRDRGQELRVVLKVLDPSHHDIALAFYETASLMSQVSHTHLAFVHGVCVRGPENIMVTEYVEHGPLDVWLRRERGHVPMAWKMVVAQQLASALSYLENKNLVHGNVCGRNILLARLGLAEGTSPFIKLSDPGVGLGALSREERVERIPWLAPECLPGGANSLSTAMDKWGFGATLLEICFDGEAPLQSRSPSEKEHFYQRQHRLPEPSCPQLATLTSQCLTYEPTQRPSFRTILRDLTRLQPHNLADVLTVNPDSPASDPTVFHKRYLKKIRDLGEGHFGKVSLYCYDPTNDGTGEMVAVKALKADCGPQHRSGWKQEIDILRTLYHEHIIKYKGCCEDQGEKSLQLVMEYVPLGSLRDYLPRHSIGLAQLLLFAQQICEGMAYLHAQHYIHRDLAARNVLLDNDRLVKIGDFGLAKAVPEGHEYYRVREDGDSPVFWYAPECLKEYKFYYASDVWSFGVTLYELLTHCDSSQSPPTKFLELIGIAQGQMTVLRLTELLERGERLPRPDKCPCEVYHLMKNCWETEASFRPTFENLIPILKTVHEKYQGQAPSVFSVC
T8 sequence (P78362 whole entry): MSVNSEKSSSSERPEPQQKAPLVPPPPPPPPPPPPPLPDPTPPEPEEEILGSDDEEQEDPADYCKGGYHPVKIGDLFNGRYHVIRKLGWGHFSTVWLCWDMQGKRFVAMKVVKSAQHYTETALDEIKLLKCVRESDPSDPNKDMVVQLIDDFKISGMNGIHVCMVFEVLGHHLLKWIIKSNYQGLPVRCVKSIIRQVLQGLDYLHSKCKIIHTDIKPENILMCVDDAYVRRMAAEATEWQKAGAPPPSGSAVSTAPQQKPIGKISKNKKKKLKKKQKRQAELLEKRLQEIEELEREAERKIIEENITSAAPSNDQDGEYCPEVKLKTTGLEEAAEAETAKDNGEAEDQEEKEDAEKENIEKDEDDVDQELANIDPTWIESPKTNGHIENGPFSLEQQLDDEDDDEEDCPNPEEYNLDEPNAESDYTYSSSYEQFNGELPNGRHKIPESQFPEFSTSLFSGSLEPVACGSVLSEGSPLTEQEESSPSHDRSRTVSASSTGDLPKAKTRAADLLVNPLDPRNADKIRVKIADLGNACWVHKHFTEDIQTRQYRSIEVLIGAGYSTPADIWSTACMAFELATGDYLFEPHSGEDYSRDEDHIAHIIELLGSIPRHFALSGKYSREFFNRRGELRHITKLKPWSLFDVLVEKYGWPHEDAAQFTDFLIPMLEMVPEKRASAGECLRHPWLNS
T16 sequence (P04049 whole entry): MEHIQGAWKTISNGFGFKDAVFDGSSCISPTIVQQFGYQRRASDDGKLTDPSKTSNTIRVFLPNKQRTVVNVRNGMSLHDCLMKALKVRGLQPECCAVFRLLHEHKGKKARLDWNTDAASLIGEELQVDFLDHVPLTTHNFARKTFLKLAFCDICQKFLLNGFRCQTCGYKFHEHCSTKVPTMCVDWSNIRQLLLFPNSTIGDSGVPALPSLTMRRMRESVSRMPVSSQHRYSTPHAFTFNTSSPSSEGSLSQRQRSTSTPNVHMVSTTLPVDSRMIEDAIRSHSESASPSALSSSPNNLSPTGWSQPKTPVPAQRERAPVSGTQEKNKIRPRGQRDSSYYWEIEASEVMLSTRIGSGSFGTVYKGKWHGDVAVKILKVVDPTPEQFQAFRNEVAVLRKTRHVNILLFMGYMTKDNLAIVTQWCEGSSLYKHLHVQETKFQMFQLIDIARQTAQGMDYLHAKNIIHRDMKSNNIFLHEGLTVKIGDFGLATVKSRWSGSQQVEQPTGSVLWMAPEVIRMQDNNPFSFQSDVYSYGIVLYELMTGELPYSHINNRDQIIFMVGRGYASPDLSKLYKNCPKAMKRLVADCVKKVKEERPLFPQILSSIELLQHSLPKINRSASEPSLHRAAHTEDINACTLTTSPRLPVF
T6 sequence (Q9UEE5 whole entry): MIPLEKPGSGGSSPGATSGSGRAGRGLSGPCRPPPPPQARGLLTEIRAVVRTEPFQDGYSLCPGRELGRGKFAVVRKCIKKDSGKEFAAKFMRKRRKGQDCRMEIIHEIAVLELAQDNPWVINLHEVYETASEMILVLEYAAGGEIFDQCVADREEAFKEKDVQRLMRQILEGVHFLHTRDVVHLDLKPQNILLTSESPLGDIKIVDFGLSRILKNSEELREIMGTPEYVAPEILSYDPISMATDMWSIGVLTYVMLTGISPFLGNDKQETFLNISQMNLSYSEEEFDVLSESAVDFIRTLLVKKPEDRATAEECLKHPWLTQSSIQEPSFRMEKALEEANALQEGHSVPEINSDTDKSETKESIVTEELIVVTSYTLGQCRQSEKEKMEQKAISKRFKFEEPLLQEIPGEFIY

In the case of `Cn1cc(-c2cnc3ccc(NC(=O)Nc4ccc(F)c(C(F)(F)F)c4)cc3n2)cn1` [51-106, 1-(4-Fluoro-3-(trifluoromethyl)phenyl)-3-(3-(1-methyl-1H-pyrazol-4-yl)quinoxalin-6-yl)urea], the “% Inhibition” value (PKCi; 5 µM, Lys2, DLKLDNVLLDSEGHIK) is reported as “NB (NB = No Binding (≤ 0))”, the inhibition at 5 µM (PKCi; Lys1, […]) is reported as ≤ 0% and the inhibition at 5 µM (TYK2 domain2) is reported as ≤ 0%. For the same molecule, the “% Inhibition” value (JNK1, JNK2, JNK3) was “NB (NB = No Binding (≤ 0))”, the inhibition at 5 µM (MST1) was ≤ 0% and the inhibition at 5 µM (AurB) was ≤ 0%. For the same molecule, the “% Inhibition” value [1] was “NB (NB = No Binding (≤ 0))”, the inhibition at 5 µM (PDK1) was ≤ 0% and the inhibition at 5 µM (DRAK1) was ≤ 0%. For the same molecule, the “% Inhibition” value (PKCa, PKCg) was “NB (NB = No Binding (≤ 0))”, the “% Inhibition” value (MAP3K15, MAP3K5, MAP3K6) was “NB (NB = No Binding (≤ 0))” and the inhibition at 5 µM (HRI) was ≤ 0%. The inhibition at 5 µM (SRPK2) was ≤ 0%, the inhibition at 5 µM (NEK4) was 5.8% and the inhibition at 5 µM (GCK; Lys1, DTVTSELAAVKIVK) was 18.3%. The inhibition at 5 µM (GCK; Lys2, DIKGANLLLTLQGDVK) was 3.9%, the inhibition at 5 µM (MST3) was 4.2% and the “% Inhibition” value (Wnk1, Wnk2, Wnk3) was 10.6%. It also gave an inhibition at 5 µM (MAP3K5) of 11.7%, an inhibition at 5 µM (PCTAIRE2) of 9.7% and an inhibition at 5 µM (RSK2 domain2) of 5.7%. The “% Inhibition” value (KSR1, KSR2) was 8.8%, the “% Inhibition” value (PCTAIRE2, PCTAIRE3) was “NB (NB = No Binding (≤ 0))” and the inhibition at 5 µM (PIK3C2B) was 2.9%. For the same molecule, the “% Inhibition” value (Wnk1, Wnk2, Wnk4) was 4.6%, the inhibition at 5 µM (RAF1) was ≤ 0% and the “% Inhibition” value (MAPKAPK3; 5 µM, Lys1, CALKLLYDSPK) was “NB (NB = No Binding (≤ 0))”. For the same molecule, the inhibition at 5 µM (MAPKAPK3; ATP Loop, […]) was ≤ 0% and the inhibition at 5 µM (PKN2) was 3.7%.
